{
  "source": "patent US8637509B2",
  "about": "“Azaindazoles” (GlaxoSmithKline LLC, priority 2010, dated 2014)",
  "data": [
    {"target": "T1, EZH2 (Homo sapiens, UniProt Q15910)", "T1 construct": "GRITS37108", "T1 sequence (Q15910 whole entry)": "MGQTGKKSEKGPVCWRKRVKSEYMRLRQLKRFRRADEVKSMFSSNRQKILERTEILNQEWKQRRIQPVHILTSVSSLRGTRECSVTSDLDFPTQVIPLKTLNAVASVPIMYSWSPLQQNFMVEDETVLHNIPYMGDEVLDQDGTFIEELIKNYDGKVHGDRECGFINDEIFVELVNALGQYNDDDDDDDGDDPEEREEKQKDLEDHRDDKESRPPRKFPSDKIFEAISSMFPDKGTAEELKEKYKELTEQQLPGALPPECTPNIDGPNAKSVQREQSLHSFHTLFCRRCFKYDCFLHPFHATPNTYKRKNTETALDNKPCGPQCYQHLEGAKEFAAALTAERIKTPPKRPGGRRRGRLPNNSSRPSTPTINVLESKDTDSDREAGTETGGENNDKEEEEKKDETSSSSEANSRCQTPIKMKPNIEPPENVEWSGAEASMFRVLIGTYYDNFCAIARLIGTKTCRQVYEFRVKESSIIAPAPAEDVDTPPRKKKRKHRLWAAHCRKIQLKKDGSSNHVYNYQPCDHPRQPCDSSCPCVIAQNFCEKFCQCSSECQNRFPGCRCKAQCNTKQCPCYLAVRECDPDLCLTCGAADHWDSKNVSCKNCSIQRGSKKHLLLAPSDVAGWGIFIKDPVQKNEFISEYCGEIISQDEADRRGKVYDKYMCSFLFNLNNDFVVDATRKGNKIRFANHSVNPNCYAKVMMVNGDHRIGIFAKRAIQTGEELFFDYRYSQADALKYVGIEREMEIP", "T1 sequence (O75530 whole entry partner)": "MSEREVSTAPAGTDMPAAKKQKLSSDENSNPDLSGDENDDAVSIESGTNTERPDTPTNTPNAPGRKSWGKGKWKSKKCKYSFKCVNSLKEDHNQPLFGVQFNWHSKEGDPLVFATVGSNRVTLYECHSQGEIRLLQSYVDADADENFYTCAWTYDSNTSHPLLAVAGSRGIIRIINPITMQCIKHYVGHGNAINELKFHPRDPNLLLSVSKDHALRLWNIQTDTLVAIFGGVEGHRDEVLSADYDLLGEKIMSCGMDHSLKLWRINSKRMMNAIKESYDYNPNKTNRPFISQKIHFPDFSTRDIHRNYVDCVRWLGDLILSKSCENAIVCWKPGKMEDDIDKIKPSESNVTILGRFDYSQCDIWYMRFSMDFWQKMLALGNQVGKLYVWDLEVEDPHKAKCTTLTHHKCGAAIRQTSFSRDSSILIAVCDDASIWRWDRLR", "T1 sequence (Q15022 whole entry partner)": "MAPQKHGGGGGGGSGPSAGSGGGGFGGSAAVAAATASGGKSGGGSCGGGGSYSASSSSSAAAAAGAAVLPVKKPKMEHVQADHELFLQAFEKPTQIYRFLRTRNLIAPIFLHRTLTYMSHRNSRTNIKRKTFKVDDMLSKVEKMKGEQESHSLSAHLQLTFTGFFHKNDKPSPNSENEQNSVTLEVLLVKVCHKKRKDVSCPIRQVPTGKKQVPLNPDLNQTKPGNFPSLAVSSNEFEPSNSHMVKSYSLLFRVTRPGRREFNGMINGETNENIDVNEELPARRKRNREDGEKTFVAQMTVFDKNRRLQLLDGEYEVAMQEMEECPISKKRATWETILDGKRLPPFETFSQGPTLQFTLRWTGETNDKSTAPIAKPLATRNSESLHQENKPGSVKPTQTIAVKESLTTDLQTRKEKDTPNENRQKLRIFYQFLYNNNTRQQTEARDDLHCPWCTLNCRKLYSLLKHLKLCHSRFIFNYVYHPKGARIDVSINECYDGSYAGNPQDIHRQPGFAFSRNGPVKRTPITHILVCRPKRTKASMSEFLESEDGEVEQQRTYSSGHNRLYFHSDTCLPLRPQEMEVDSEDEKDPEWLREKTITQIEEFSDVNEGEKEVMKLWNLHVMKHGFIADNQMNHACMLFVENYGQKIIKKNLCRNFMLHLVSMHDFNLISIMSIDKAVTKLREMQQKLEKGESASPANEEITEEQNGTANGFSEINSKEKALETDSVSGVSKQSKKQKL", "experiment": "EZH2 methyltransferase SPA assay (3H-SAM, Hela nucleosomes)", "type": "biochemical", "details": "not given", "units": {"IC50": "nM"}, "values": [
      {"compound": "CCCc1cc(C)[nH]c(=O)c1CNC(=O)c1cc(-c2ccncc2)nc2c1cnn2C(C)C", "note": "[Ex 11, 1-(1-Methylethyl)-N-[(6-methyl-2-oxo-4-propyl-1,2-dihydro-3-pyridinyl)methyl]-6-(4-pyridinyl)-1H-pyrazolo[3,4-b]pyridine-4-carboxamide]", "IC50": 18}
    ]},
    {"target": "T1, EZH2", "experiment": "EZH2 methyltransferase SPA assay (3H-SAM, Hela nucleosomes)", "type": "biochemical", "details": "10 nM EZH2, 7 μg/ml Hela nucleosomes, 2-parameter IC50 fit; single-point-in-time values; read-out: IC50", "units": {"IC50": "nM"}, "values": [
      {"compound": "N-[(4,6-Dimethyl-2-oxo-1,2-dihydro-3-pyridinyl)methyl]-1-(1-methylethyl)-6-(2-phenylethyl)-1H-pyrazolo[3,4-b]pyridine-4-carboxamide [Ex 32]", "IC50": 856}
    ]},
    {"target": "T1, EZH2", "experiment": "EZH2 methyltransferase SPA assay (3H-SAM, Hela nucleosomes)", "type": "biochemical", "details": "read-out: IC50", "units": {"IC50": "nM"}, "values": [
      {"compound": "Cc1cc(C)c(CNC(=O)c2cc(C3CC3)nc3c2c(C)nn3C2CCCC2)c(=O)[nH]1", "note": "[Ex 106, 1-Cyclopentyl-6-cyclopropyl-N-[(4,6-dimethyl-2-oxo-1,2-dihydro-3-pyridinyl)methyl]-3-methyl-1H-pyrazolo[3,4-b]pyridine-4-carboxamide]", "IC50": 119},
      {"compound": "Cc1cc(C)c(CNC(=O)c2cc(NCCNc3ccccn3)nc3c2cnn3C(C)C)c(=O)[nH]1", "note": "[Ex 95, N-[(4,6-Dimethyl-2-oxo-1,2-dihydro-3-pyridinyl)methyl]-1-(1-methylethyl)-6-{[2-(2-pyridinylamino)ethyl]amino}-1H-pyrazolo[3,4-b]pyridine-4-carboxamide]", "IC50": 489},
      {"compound": "Cc1cc(C)c(CNC(=O)c2cc(-c3cncc(S(C)(=O)=O)c3)nc3c2cnn3C(C)C)c(=O)[nH]1", "note": "[Ex 61, N-[(4,6-Dimethyl-2-oxo-1,2-dihydro-3-pyridinyl)methyl]-1-(1-methylethyl)-6-[5-(methylsulfonyl)-3-pyridinyl]-1H-pyrazolo[3,4-b]pyridine-4-carboxamide]", "IC50": 112},
      {"compound": "Cc1cc(C2CCCCC2)c(CNC(=O)c2cc(-c3ccncc3)nc3c2cnn3C(C)C)c(=O)[nH]1", "note": "[Ex 15, N-[(4-Cyclohexyl-6-methyl-2-oxo-1,2-dihydro-3-pyridinyl)methyl]-1-(1-methylethyl)-6-(4-pyridinyl)-1H-pyrazolo[3,4-b]pyridine-4-carboxamide]", "IC50": 179},
      {"compound": "C=CCNc1cc(C(=O)NCc2c(C)cc(C)[nH]c2=O)c2cnn(C(C)C)c2n1", "note": "[Ex 5, N-[(4,6-Dimethyl-2-oxo-1,2-dihydro-3-pyridinyl)methyl]-1-(1-methylethyl)-6-(2-propen-1-ylamino)-1H-pyrazolo[3,4-b]pyridine-4-carboxamide]", "IC50": 705},
      {"compound": "Cc1cc(C)c(CNC(=O)c2cc(-c3ccc4[nH]ncc4c3)nc3c2cnn3C(C)C)c(=O)[nH]1", "note": "[Ex 74, N-[(4,6-Dimethyl-2-oxo-1,2-dihydro-3-pyridinyl)methyl]-6-(1H-indazol-5-yl)-1-(1-methylethyl)-1H-pyrazolo[3,4-b]pyridine-4-carboxamide]", "IC50": 151},
      {"compound": "Cc1cc(C)c(CNC(=O)c2cc(-c3ccccc3)nc3c2c(Br)nn3C(C)C)c(=O)[nH]1", "note": "[Ex 123, 3-Bromo-N-[(4,6-dimethyl-2-oxo-1,2-dihydro-3-pyridinyl)methyl]-1-(1-methylethyl)-6-phenyl-1H-pyrazolo[3,4-b]pyridine-4-carboxamide]", "IC50": 218},
      {"compound": "Cc1cc(C)c(CNC(=O)c2cc(-c3ccco3)nc3c2cnn3C(C)C)c(=O)[nH]1", "note": "[Ex 62, N-[(4,6-Dimethyl-2-oxo-1,2-dihydro-3-pyridinyl)methyl]-6-(2-furanyl)-1-(1-methylethyl)-1H-pyrazolo[3,4-b]pyridine-4-carboxamide]", "IC50": 581},
      {"compound": "Cc1cc(C)c(CNC(=O)c2cc(-c3ccccc3)nc3c2cnn3C(C)C)c(=O)[nH]1", "note": "[Ex 38, N-[(4,6-Dimethyl-2-oxo-1,2-dihydro-3-pyridinyl)methyl]-1-(1-methylethyl)-6-phenyl-1H-pyrazolo[3,4-b]pyridine-4-carboxamide]", "IC50": 392},
      {"compound": "CCCc1cc(C)[nH]c(=O)c1CNC(=O)c1cc(C2CC2)nc2c1cnn2C(C)C", "note": "[Ex 13, 6-Cyclopropyl-1-(1-methylethyl)-N-[(6-methyl-2-oxo-4-propyl-1,2-dihydro-3-pyridinyl)methyl]-1H-pyrazolo[3,4-b]pyridine-4-carboxamide]", "IC50": 55},
      {"compound": "Cc1cc(C)c(CNC(=O)c2cc(-c3cnc(N)nc3)nc3c2cnn3C(C)C)c(=O)[nH]1", "note": "[Ex 72, 6-(2-Amino-5-pyrimidinyl)-N-[(4,6-dimethyl-2-oxo-1,2-dihydro-3-pyridinyl)methyl]-1-(1-methylethyl)-1H-pyrazolo[3,4-b]pyridine-4-carboxamide]", "IC50": 171},
      {"compound": "Cc1cc(C)c(CNC(=O)c2cc(-c3cn[nH]c3)nc3c2cnn3C(C)C)c(=O)[nH]1", "note": "[Ex 71, N-[(4,6-Dimethyl-2-oxo-1,2-dihydro-3-pyridinyl)methyl]-1-(1-methylethyl)-6-(1H-pyrazol-4-yl)-1H-pyrazolo[3,4-b]pyridine-4-carboxamide]", "IC50": 402},
      {"compound": "CC(=O)Nc1ccc(-c2cc(C(=O)NCc3c(C)cc(C)[nH]c3=O)c3cnn(C(C)C)c3n2)cc1", "note": "[Ex 44, 6-[4-(acetylamino)phenyl]-N-[(4,6-dimethyl-2-oxo-1,2-dihydro-3-pyridinyl)methyl]-1-(1-methylethyl)-1H-pyrazolo[3,4-b]pyridine-4-carboxamide]", "IC50": 74},
      {"compound": "Cc1cc(C)c(CNC(=O)c2cc(-c3ccc4[nH]nc(C)c4c3)nc3c2cnn3C(C)C)c(=O)[nH]1", "note": "[Ex 30, N-[(4,6-Dimethyl-2-oxo-1,2-dihydro-3-pyridinyl)methyl]-1-(1-methylethyl)-6-(3-methyl-1H-indazol-5-yl)-1H-pyrazolo[3,4-b]pyridine-4-carboxamide]", "IC50": 154},
      {"compound": "Cc1cc(C(=O)NCc2c(C)cc(C)[nH]c2=O)c2cnn(Cc3ccccc3)c2n1", "note": "[Ex 100, N-[(4,6-Dimethyl-2-oxo-1,2-dihydro-3-pyridinyl)methyl]-6-methyl-1-(phenylmethyl)-1H-pyrazolo[3,4-b]pyridine-4-carboxamide]", "IC50": 5750},
      {"compound": "Cc1cc(-c2ccccc2)c(CNC(=O)c2cc(-c3ccncc3)nc3c2cnn3C(C)C)c(=O)[nH]1", "note": "[Ex 14, 1-(1-Methylethyl)-N-[(6-methyl-2-oxo-4-phenyl-1,2-dihydro-3-pyridinyl)methyl]-6-(4-pyridinyl)-1H-pyrazolo[3,4-b]pyridine-4-carboxamide]", "IC50": 735},
      {"compound": "Cc1cc(C)c(CNC(=O)c2cc(-c3ccc(-c4cn[nH]c4)cc3)nc3c2cnn3C(C)C)c(=O)[nH]1", "note": "[Ex 120, N-[(4,6-Dimethyl-2-oxo-1,2-dihydro-3-pyridinyl)methyl]-1-(1-methylethyl)-6-[4-(1H-pyrazol-4-yl)phenyl]-1H-pyrazolo[3,4-b]pyridine-4-carboxamide]", "IC50": 270},
      {"compound": "Cc1cc(C)c(CNC(=O)c2cc(-c3ccc4[nH]c(=O)[nH]c4c3)nc3c2cnn3C(C)C)c(=O)[nH]1", "note": "[Ex 80, N-[(4,6-Dimethyl-2-oxo-1,2-dihydro-3-pyridinyl)methyl]-1-(1-methylethyl)-6-(2-oxo-2,3-dihydro-1H-benzimidazol-5-yl)-1H-pyrazolo[3,4-b]pyridine-4-carboxamide]", "IC50": 71},
      {"compound": "Cc1cc(-c2ccccc2)c(CNC(=O)c2cc(C3CC3)nc3c2cnn3C(C)C)c(=O)[nH]1", "note": "[Ex 17, 6-Cyclopropyl-1-(1-methylethyl)-N-[(6-methyl-2-oxo-4-phenyl-1,2-dihydro-3-pyridinyl)methyl]-1H-pyrazolo[3,4-b]pyridine-4-carboxamide]", "IC50": 2590},
      {"compound": "Cc1cc(C)c(CNC(=O)c2cc(C3CC3)nc3c2c(C)nn3C(C)C2CC2)c(=O)[nH]1", "note": "(stereo not drawn) [Ex 109, 6-Cyclopropyl-1-(1-cyclopropylethyl)-N-[(4,6-dimethyl-2-oxo-1,2-dihydro-3-pyridinyl)methyl]-3-methyl-1H-pyrazolo[3,4-b]pyridine-4-carboxamide]", "IC50": 207},
      {"compound": "Cc1cc(C)c(CNC(=O)c2cc(C#Cc3ccncc3)nc3c2cnn3C(C)C)c(=O)[nH]1", "note": "[Ex 33, N-[(4,6-Dimethyl-2-oxo-1,2-dihydro-3-pyridinyl)methyl]-1-(1-methylethyl)-6-(4-pyridinylethynyl)-1H-pyrazolo[3,4-b]pyridine-4-carboxamide]", "IC50": 70},
      {"compound": "Cc1cc(C)c(CNC(=O)c2cc(-c3ccccc3C)nc3c2cnn3C(C)C)c(=O)[nH]1", "note": "[Ex 70, N-[(4,6-Dimethyl-2-oxo-1,2-dihydro-3-pyridinyl)methyl]-1-(1-methylethyl)-6-(2-methylphenyl)-1H-pyrazolo[3,4-b]pyridine-4-carboxamide]", "IC50": 1890},
      {"compound": "CC(=O)Nc1ccc(-c2cc(C(=O)NCc3c(C)cc(C)[nH]c3=O)c3c(C)nn(C(C)C)c3n2)cc1", "note": "[Ex 93, 6-[4-(Acetylamino)phenyl]-N-[(4,6-dimethyl-2-oxo-1,2-dihydro-3-pyridinyl)methyl]-3-methyl-1-(1-methylethyl)-1H-pyrazolo[3,4-b]pyridine-4-carboxamide]", "IC50": 83},
      {"compound": "CCCc1cc(C)c(CNC(=O)c2cc(C3CC3)nc3c2cnn3C(C)C)c(=O)[nH]1", "note": "[Ex 7, 6-Cyclopropyl-1-(1-methylethyl)-N-[(4-methyl-2-oxo-6-propyl-1,2-dihydro-3-pyridinyl)methyl]-1H-pyrazolo[3,4-b]pyridine-4-carboxamide]", "IC50": 1300},
      {"compound": "Cc1cc(C)c(CNC(=O)c2cc(-c3ccc(N4CCOCC4)nc3)nc3c2c(C)nn3C(C)C)c(=O)[nH]1", "note": "[Ex 83, N-[(4,6-Dimethyl-2-oxo-1,2-dihydro-3-pyridinyl)methyl]-3-methyl-1-(1-methylethyl)-6-[6-(4-morpholinyl)-3-pyridinyl]-1H-pyrazolo[3,4-b]pyridine-4-carboxamide]", "IC50": 43},
      {"compound": "Cc1cc(C)c(CNC(=O)c2cc(-c3ccccc3[N+](=O)[O-])nc3c2cnn3C(C)C)c(=O)[nH]1", "note": "[Ex 124, N-[(4,6-Dimethyl-2-oxo-1,2-dihydro-3-pyridinyl)methyl]-1-(1-methylethyl)-6-(2-nitrophenyl)-1H-pyrazolo[3,4-b]pyridine-4-carboxamide]", "IC50": 1050},
      {"compound": "Cc1cc(C)c(CNC(=O)c2cc(C3CC3)nc3c2c(C)nn3C(C)C)c(=O)[nH]1", "note": "[Ex 103, 6-Cyclopropyl-N-[(4,6-dimethyl-2-oxo-1,2-dihydro-3-pyridinyl)methyl]-3-methyl-1-(1-methylethyl)-1H-pyrazolo[3,4-b]pyridine-4-carboxamide]", "IC50": 373},
      {"compound": "Cc1cc(C)c(CNC(=O)c2cc(-c3ccc(N4CCOCC4)nc3)nc3c2cnn3C(C)C)c(=O)[nH]1", "note": "[Ex 67, N-[(4,6-Dimethyl-2-oxo-1,2-dihydro-3-pyridinyl)methyl]-1-(1-methylethyl)-6-[6-(4-morpholinyl)-3-pyridinyl]-1H-pyrazolo[3,4-b]pyridine-4-carboxamide]", "IC50": 58}
    ]}
  ]
}
